Assay results published in patent publication US9771361B2, “Inhibitors of influenza viruses replication” (priority 2013, dated 2017).
Values joined by “and” are separate entries in the source; they are usually repeats but may differ in a detail not shown here. Identical values can stand only once. Counter-ions that a name gives are not always drawn. Like-named read-outs stand apart in the source and are kept apart here. Marks after values point to notes of the source that are not given here.

What was measured:
[1] = Water activity tests: competition slurry of Form A seeded with Form F in IPA/water; format: physicochemical; details: Starting Forms A + F, Water Activity (aw) 0.9, Water wt % 2.80
[2] = system: Influenza A/Victoria/3/75 (H3N2) virus; format: in vivo, BALB/c mice
[3] = system: influenza A; format: in vivo, mice
[4] = system: influenza virus B/Mass/3/66; format: in vivo, Balb/c mice
[5] = system: influenza virus A/PR/8/34; format: in vivo, Balb/c mice
[6] = system: Influenza A/California/04/2009 (pndH1N1) virus; format: in vivo, BALB/c mice
[7] = system: influenza A virus; format: in vivo, mice
[8] = Conversion of free base Form A to hydrated form B with humidity/water activity; format: physicochemical; details: ambient temperature
[9] = system: influenza A/Wisconsin/67/2005 (H3N2) challenge strain virus; set-up: species or system humans; details: human, in vivo
[10] = system: influenza B virus; format: cell-based
[11] = system: influenza virus; set-up: species or system mice; details: mouse, in vivo
[12] = system: influenza A/Wisconsin/67/2005 (H3N2) challenge strain virus; set-up: species or system humans; details: human, in vivo; remark: listed apart in the source
[13] = in vivo
[14] = system: influenza A strains; format: cell-based, influenza A virus
[15] = system: Influenza A/Vietnam/1203/2004 (H5N1) virus; set-up: species or system BALB/c mice; details: mouse, in vivo
[16] = system: influenza A/Wisconsin/67/2005 (H3N2) challenge strain virus; set-up: species or system humans; details: human, in vivo; remark: listed apart in the source
[17] = human, in vivo
[18] = system: influenza A; set-up: species or system mice; details: mouse, in vivo
[19] = 10 mg/kg per treatment, twice a day for 10 days starting 2 hours prior to virus exposure
[20] = Compound (1) 0 mg/kg, Oseltamivir 10 mg/kg, […]
[21] = treatment start +48 h, 10 mg/kg BID
[22] = treatment start +72 h, 10 mg/kg BID

## O=C(O)[C@H]1C2CCC(CC2)C1Nc1nc(-c2c[nH]c3ncc(F)cc23)ncc1F (stereo partly shown) [Form A of HCl salt of Compound (1).½H2O]
[1]
  Final Form: converted to Form F of HCl salt of Compound (1).3H2O

## CCOC(=O)C1=C[C@@H](OC(CC)CC)[C@H](NC(C)=O)[C@@H](N)C1 [Oseltamivir]
[2]; [19]
  Survivors/Total: 9/10***
[3]; 10 mg/kg BID, same experiment
  survival: All of the oseltamivir-administered mice survived
[3]; mouse, in vivo, 10 mg/kg
  Percent Body Weight Loss on Study Day 8: −19.1%
  Percent Survival: 100%
[4]; [20]
  Penh (Day 6/7): 1.08
  Survival (21 days): 100%
  Weight Loss (Day 8): 12.8%
[4]; mouse, in vivo
  protection from death, BW loss and lung function: complete protection from death, reduced BW loss and restored lung function
[5]; [20]
  Penh (Day 3): 2.36
  Survival (21 days): 0%
  Weight Loss (Day 8): 32.0%
[5]; mouse, in vivo
  protection from death, BW loss and lung function: did not protect from death reduce BW loss or restore lung function
[6]; [19]
  Survivors/Total: 10/10***
[7]; mouse, in vivo, 10 mg/kg
  Percent Body Weight Loss on Study Day 8: −28.9%
  Percent Survival: 100%
[7]; [21]
  Percent Body Weight Loss on Study Day 8: −31.1%
  Percent Survival: 80%
[7]; [22]
  Percent Body Weight Loss on Study Day 8: −31.3%
  Percent Survival: 0%

## O=C(O)[C@H]1C2CCC(CC2)[C@@H]1Nc1nc(-c2c[nH]c3ncc(F)cc23)ncc1F [Form A of Compound (1)]
[8]
  water activity where the hydrate form (form B) was observed: greater than 0.6

## O=C(O)[C@H]1C2CCC(CC2)C1Nc1nc(-c2c[nH]c3ncc(F)cc23)ncc1F (stereo partly shown) [Compound (1)]
[2]; mouse, in vivo
  Survivors/Total: 10/10***
[3]; mouse, in vivo
  survival and BW loss: complete survival and a dose-dependent reduction in BW loss
[3]; mouse, in vivo, 0.1 mg/kg
  Percent Body Weight Loss on Study Day 8: −31.9%
  Percent Survival: 0%
[3]; mouse, in vivo, 0.3 mg/kg
  Percent Body Weight Loss on Study Day 8: −30.4%
  Percent Survival: 25%
[3]; mouse, in vivo, 1 mg/kg
  Percent Body Weight Loss on Study Day 8: −16.8%
  Percent Survival: 100%
[3]; mouse, in vivo, 3 mg/kg
  Percent Body Weight Loss on Study Day 8: −8.7%
  Percent Survival: 100%
[3]; mouse, in vivo, 10 mg/kg
  Percent Body Weight Loss on Study Day 8: −2.8%
  Percent Survival: 100%
[9]
  AUC viral shedding versus pooled placebo: statistically significant reduction
  dose response trend in median AUC viral shedding in nasal swabs: statistically significant dose response trend
  improvement over placebo in viral shedding: a similar magnitude of improvement over placebo was not observed
  peak viral shedding versus pooled placebo: significant reductions
[10]
  activity against influenza B virus: limited activity
[4]; mouse, in vivo
  Penh (Day 6/7): 1.90 and 2.06 and 2.04
  Survival (21 days): 0%
  Weight Loss (Day 8): 33.6% and 33.9% and 33%
  activity against influenza B in vivo: little activity
  interference with the effectiveness of Oseltamivir: does not interfere with the effectiveness of Oseltamivir
  protection against morbidity, BW loss or loss of lung function: no significant protection against morbidity, BW loss or loss of lung function
[11]
  correlation between lung titer reduction and Cmin: clear correlation
[12]
  rates of seroconversion versus placebo: no difference
[13]
  liver function abnormalities and serum phosphate decreases: Neither liver function abnormalities nor serum phosphate decreases were observed
[6]; mouse, in vivo
  Survivors/Total: 9/9*** and 10/10***
[7]; mouse, in vivo
  protection: partial protection
  protection from death and BW loss: complete protection from death and reduced BW loss
  survival: complete survival
[7]; mouse, in vivo, 1 mg/kg
  Percent Survival: 100%
[14]
  activity against all influenza A strains tested: potent activity
[15]
  protection: complete protection
[16]
  median AUC of influenza-like symptoms versus placebo: statistically significant reduction
  median duration of composite clinical symptoms versus placebo: statistically significant reduction
  median duration of influenza-like symptoms versus placebo: statistically significant reduction
[17]
  discontinuations and serious adverse events: no discontinuations due to Compound (1)-related adverse events (AE) nor were there any serious adverse events
  elevations in alanine aminotransferase (ALT): observed
  incidence of decreased blood phosphorus level: 18.1%
  incidence of nasal congestion: 1.4%
  incidence of rhinorrhea: 4.2%
  tolerability: well tolerated
[18]
  reduction in lung viral titers: robust, statistically significant reductions in lung viral titers
